Laboratory results from patent US20260250318A1, “COMPOSITIONS AND METHODS FOR CROSSING THE BLOOD BRAIN BARRIER” (VOYAGER THERAPEUTICS, INC., priority 2022, published 2026).

Key:
brain [1] = test: NGS fold enrichment of synthetic library (passage 3) in BALB/c mice, first cross-species screen; type: in vivo; conditions: synthetic library passage 3, intravenous, relative to wild-type AAV9
Procedure: (§1) After creation of the synthetic library with the sub-selected variants, the synthetic library was screened (passage 3) in two NHPs (2-4 years of age) and two strains of mice, BALB/c (n=3, 6-8 weeks of age) and C57Bl/6 mice (n=3, 6-8 weeks of age), in a first cross-species evolution screen. The animals were injected intravenously with the synthetic library. After a period in vivo, (e.g., 28-days) RNA was extracted from nervous tissue, e.g., brain, spinal cord, and DRG of the NHPs and the brains of mice. Following RNA recovery and RT-PCR amplification, a systematic NGS enrichment analysis was performed, and the peptides comprised within the variants were identified and the capsid enrichment ratio for each variant compared to the wild-type AAV9 control was calculated (fold enrichment relative to wild-type AAV9) (Table 9). […] All animals were dosed intravenously at […] across the screen.

[2] = tested on: brain, spinal cord, and DRG of the NHPs; test: NGS fold enrichment of synthetic library (passage 3) in NHPs, first cross-species screen; type: in vivo, cynomolgus macaques (Macaca fascicularis); conditions: synthetic library passage 3, intravenous, relative to wild-type AAV9
Procedure: as §1

brain [3] = test: NGS fold enrichment of synthetic library (passage 3) in C57Bl/6 mice, first cross-species screen; type: in vivo; conditions: synthetic library passage 3, intravenous, relative to wild-type AAV9
Procedure: as §1

brain [4] = test: Maturation of TTM-001 capsid, NGS enrichment in brain of CD-1 Outbred mice; type: in vivo; conditions: NGS fold-enrichment of TTM-001 matured AAV capsid variants in the brain of CD-1 Outbred mice; intravenous 1.0×10^12 VG/dose; 14 days in life; RNA; relative to non-matured TTM-001 control
Method in brief: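 Brain enrichment read by NGS after RNA extraction and RT-PCR, expressed as fold ratio over the matching parental capsid (TTM-001 or TTM-002). Libraries, mutated around loop IV positions 449/450–466, were injected intravenously (tail vein, 1.0×10^12 VG/dose) into three female CD-1 mice; brains harvested at 14 days.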

[5] = RNA from brain of BALB/c mice, NGS
[6] = RNA from spinal cord of NHPs, NGS
[7] = RNA from brain of C57Bl/6 mice, NGS

Sequence | Fold enrichment over AAV9 in the brain of Mice (BALB/c) (brain [1]; RNA NGS, brain of BALB/c mice) [fold] | Fold enrichment over AAV9 in the brain of NHPs ([2]; RNA NGS, brain of NHPs) [fold] | Fold enrichment over AAV9 in the spinal cord of NHPs ([2]; RNA NGS, spinal cord of NHPs) [fold] | Fold enrichment over AAV9 in the brain of Mice (C57Bl/6) (brain [3]; RNA NGS, brain of C57Bl/6 mice) [fold] | Fold enrichment over TTM-001 (brain [4]) [fold] | further results
GAFHLAASGQNQQT |  |  |  |  |  | Fold enrichment over AAV9 in the brain of Mice (BALB/c) (brain [1]; [5]): 0.775 fold; Fold enrichment over AAV9 in the brain of NHPs ([2]; RNA from brain of NHPs, NGS): 1.369 fold; Fold enrichment over AAV9 in the spinal cord of NHPs [2, 6]: 18.165 fold; Fold enrichment over AAV9 in the brain of Mice (C57Bl/6) (brain [3]; [7]): 0.994 fold
GAGLIMHSGQNQQT | 0.511 | 1.425 | 1.408 | 0.565 |  | 
GAGSIIPSGQNQQT | 0.249 | 2.129 | 7.164 | 0.595 |  | 
GAGVHMVSGQNQQT | 0.791 | 1.987 | 6.488 | 1.055 |  | 
GALTVMQSGQNQQT | 0.199 | 2.381 | 0.430 | 0.246 |  | 
GALVSPISGQNQQT | 0.347 | 1.912 | 1.051 | 0.640 |  | 
GAMTVTISGQNQQT | 0.257 | 1.542 | 6.249 | 0.443 |  | 
GAMVSHSSGQNQQT | 0.868 | 1.833 | 8.999 | 0.739 |  | 
GANMGHVSGQNQQT | 1.138 | 2.020 | 0.810 | 1.302 |  | 
GARIQNASGQKQQT | 1.039 | 2.300 | 2.103 | 1.220 |  | 
GASHMSISGQNQQT |  |  |  |  |  | Fold enrichment over AAV9 in the brain of Mice (BALB/c) (brain [1]; [5]): 0.374 fold; Fold enrichment over AAV9 in the brain of NHPs ([2]; RNA from brain of NHPs, NGS): 1.284 fold; Fold enrichment over AAV9 in the spinal cord of NHPs [2, 6]: 0.462 fold; Fold enrichment over AAV9 in the brain of Mice (C57Bl/6) (brain [3]; [7]): 0.404 fold
GASSLATSGQNQQT |  |  |  |  |  | Fold enrichment over AAV9 in the brain of Mice (BALB/c) (brain [1]; [5]): 0.217 fold; Fold enrichment over AAV9 in the brain of NHPs ([2]; RNA from brain of NHPs, NGS): 1.337 fold; Fold enrichment over AAV9 in the spinal cord of NHPs [2, 6]: 0.703 fold; Fold enrichment over AAV9 in the brain of Mice (C57Bl/6) (brain [3]; [7]): 0.423 fold
GATLQVHSGQNQQT | 0.545 | 2.122 | 2.219 | 0.623 |  | 
GAVGHSYSGQNQQT | 0.536 | 1.706 | 0.808 | 0.306 |  | 
GAYGMVSSGQNQQT | 0.773 | 1.518 | 3.469 | 0.732 |  | 
KTINGSVSPHFMAQNQQT (peptide inserted in AAV capsid) |  |  |  |  | 2.287 | 
KTINGSVSPHLYAQNQQT (peptide inserted in AAV capsid) |  |  |  |  | 2.028 | 

Sequence | Fold enrichment over AAV9 in the brain of Mice (BALB/c) (brain [1]; RNA NGS, brain of BALB/c mice) [fold] | Fold enrichment over AAV9 in the brain of NHPs ([2]; RNA NGS, brain of NHPs) [fold] | Fold enrichment over AAV9 in the spinal cord of NHPs ([2]; RNA NGS, spinal cord of NHPs) [fold] | Fold enrichment over AAV9 in the brain of Mice (C57Bl/6) (brain [3]; RNA NGS, brain of C57Bl/6 mice) [fold] | Fold enrichment over TTM-001 (brain [4]) [fold] | further results
KTINGSVSPHRRAQNQQT (peptide inserted in AAV capsid) |  |  |  |  | 2.186 | 
KTINGSVSPHSWAQNQQT (peptide inserted in AAV capsid) |  |  |  |  | 2.562 | 
KTINGSVSPHYLAQNQQT (peptide inserted in AAV capsid) |  |  |  |  | 2.203 | 
KTINGSVSPHYVAQNQQT (peptide inserted in AAV capsid) |  |  |  |  | 2.022 | 
KTINGSWSPHLVAQNQQT (peptide inserted in AAV capsid) |  |  |  |  | 2.084 | 
KTINGSWSPHMLAQNQQT (peptide inserted in AAV capsid) |  |  |  |  | 2.106 | 
KTINGTLSPHRKAQNQQT |  |  |  |  | 2.307 | 
KTINGTPSPHRKAQNQQT |  |  |  |  | 2.244 | 
KTINGTRSPHAKAQNQQT |  |  |  |  | 2.071 | 
KTINGTRSPHTKAQNQQT |  |  |  |  | 2.203 | 
KTINGTSSPHCKAQNQQT |  |  |  |  | 2.017 | 
KTINGVASPHRKAQNQQT |  |  |  |  | 2.261 | 
KTINGVLSPHRKAQNQQT |  |  |  |  | 2.868 | 
KTINGVLSPHWKAQNQQT |  |  |  |  | 2.199 | 
KTINGVPSPHWKAQNQQT |  |  |  |  | 2.758 | 
KTINGVTSPHWKAQNQQT |  |  |  |  | 2.387 | 
